Values after ≈ are worked out from the molar mass of the structure shown. Each block holds one compound with its values, some of them ahead of it.
Key:
[1] = Oral bioavailability in BALB/c mouse at 5 mg/kg by LC/MS/MS analysis; format: ADME, organism-based; conditions: in vivo
[2] = Aqueous solubility of the compound in PBS buffer at 100 uM after 24 hrs by LC/CLND analysis; format: physicochemical
[3] = Apparent permeability from apical to basolateral side in MDCK cells at 10 uM by LC-MS/MS analysis; format: ADME, cell-based, Canis lupus familiaris; conditions: dog
[4] = Hepatic clearance in CD-1 mouse hepatocytes at 1 uM by LC-MS/MS analysis; format: ADME, cell-based, Liver, Hepatocyte
[5] = Hepatic clearance in CD-1 mouse liver microsomes at 1 uM after 20 to 60 mins by LC-MS/MS analysis; format: ADME, Microsome
[6] = Hepatic clearance in human liver microsomes at 1 uM after 20 to 60 mins by LC-MS/MS analysis; format: ADME, Microsome
[7] = Cmax in BALB/c mouse at 5 mg/kg, po by LC/MS/MS analysis; format: ADME, organism-based; design: dose 5 mg/kg, route oral; conditions: in vivo
[8] = Tmax in BALB/c mouse at 5 mg/kg, po by LC/MS/MS analysis; format: ADME, organism-based; design: dose 5 mg/kg, route oral; conditions: in vivo
[9] = Half life in BALB/c mouse at 1 mg/kg, iv by LC/MS/MS analysis; format: ADME, organism-based; design: dose 1 mg/kg, route intravenous; conditions: in vivo
[10] = Half life in BALB/c mouse at 5 mg/kg, po by LC/MS/MS analysis; format: ADME, organism-based; design: dose 5 mg/kg, route oral; conditions: in vivo
[11] = Volume of distribution at steady state in BALB/c mouse at 1 mg/kg, iv by LC/MS/MS analysis; format: ADME, organism-based; design: dose 1 mg/kg, route intravenous; conditions: in vivo, read-out: Vdss
[12] = Clearance in BALB/c mouse at 1 mg/kg, iv by LC/MS/MS analysis; format: ADME, organism-based; design: dose 1 mg/kg, route intravenous; conditions: in vivo

Structure (SMILES): Nc1ccc(CNC(=O)Nc2ccc(S(=O)(=O)c3ccccc3)cc2)cn1
bioavailability [1]: 31%
solubility at 24 h, 100 µM [2]: 109 µM (≈ 41.7 µg/mL)
Papp A→B at 10 µM [3]: 2.9 ×10⁻⁶ cm/s
CLhep predicted at 1 µM [4]: 12 mL/min/kg
CLhep predicted at 1 µM [5]: 42 mL/min/kg
CLhep predicted at 1 µM [6]: 5 mL/min/kg
Cmax [7]: 2900 nM
Tmax [8]: 0.83 h
half-life [9]: 2.6 h
half-life [10]: 2.7 h
Vd [11]: 0.51 L/kg
clearance [12]: 4.9 mL/min/kg

Structure (SMILES): O=C(NCc1cccnn1)Nc1ccc(S(=O)(=O)c2ccccc2)cc1
CLhep predicted at 1 µM [6]: 3 mL/min/kg

Structure (SMILES): O=C(NCc1cncc(F)c1)Nc1ccc(S(=O)(=O)c2ccccc2)cc1
CLhep predicted at 1 µM [6]: 8 mL/min/kg

Structure (SMILES): O=C(NCc1cccnc1)Nc1ccc(S(=O)(=O)N2CCC3(CCCN3)CC2)cc1
CLhep predicted at 1 µM [6]: 7 mL/min/kg

Structure (SMILES): O=C(NCc1cccnc1)Nc1ccc(S(=O)(=O)N2C3CCC2COC3)cc1
CLhep predicted at 1 µM [6]: 8 mL/min/kg

Structure (SMILES): O=C(NCc1cncnc1)Nc1ccc(S(=O)(=O)c2ccccc2)cc1
CLhep predicted at 1 µM [6]: 6 mL/min/kg

Structure (SMILES): O=C(NCc1cnccn1)Nc1ccc(S(=O)(=O)c2ccccc2)cc1
CLhep predicted at 1 µM [6]: 5 mL/min/kg

Structure (SMILES): O=C(NCc1cccnc1)Nc1ccc(S(=O)(=O)N2CCC3(CCNC3)CC2)cc1
solubility at 24 h, 100 µM [2]: 75 µM (≈ 32.2 µg/mL)
Papp A→B at 10 µM [3]: 0.07 ×10⁻⁶ cm/s
CLhep predicted at 1 µM [4]: 9.2 mL/min/kg
CLhep predicted at 1 µM [5]: 44 mL/min/kg
CLhep predicted at 1 µM [6]: 4 mL/min/kg

Structure (SMILES): O=C(NCc1ccc(Cl)nc1)Nc1ccc(S(=O)(=O)c2ccccc2)cc1
CLhep predicted at 1 µM [6]: 6 mL/min/kg

Structure (SMILES): O=C(NCc1cccnc1)Nc1ccc(S(=O)(=O)N2CCC3(CCNCC3)C2)cc1
CLhep predicted at 1 µM [6]: 2 mL/min/kg

Structure (SMILES): Nc1ncc(CNC(=O)Nc2ccc(S(=O)(=O)c3ccccc3)cc2)cn1
CLhep predicted at 1 µM [6]: 3 mL/min/kg

Structure (SMILES): COc1ccc(CNC(=O)Nc2ccc(S(=O)(=O)c3ccccc3)cc2)cn1
CLhep predicted at 1 µM [6]: 12 mL/min/kg

The next lines start with the values.

solubility at 24 h, 100 µM [2]: 107 µM (≈ 43.2 µg/mL)
Papp A→B at 10 µM [3]: 0.1 ×10⁻⁶ cm/s
CLhep predicted at 1 µM [4]: 16 mL/min/kg
CLhep predicted at 1 µM [5]: 48 mL/min/kg
CLhep predicted at 1 µM [6]: 8 mL/min/kg
Structure (SMILES): CC1CNCCN(S(=O)(=O)c2ccc(NC(=O)NCc3cccnc3)cc2)C1 (racemic)

solubility at 24 h, 100 µM [2]: 112 µM (≈ 45.3 µg/mL)
Papp A→B at 10 µM [3]: 3.1 ×10⁻⁶ cm/s
CLhep predicted at 1 µM [4]: 55 mL/min/kg
CLhep predicted at 1 µM [5]: 81 mL/min/kg
CLhep predicted at 1 µM [6]: 17 mL/min/kg
Structure (SMILES): C[C@@H]1CN(S(=O)(=O)c2ccc(NC(=O)NCc3cccnc3)cc2)C[C@H](C)O1

CLhep predicted at 1 µM [6]: 5 mL/min/kg
Structure (SMILES): CC1CCN(S(=O)(=O)c2ccc(NC(=O)NCc3cccnc3)cc2)CCN1 (racemic)

solubility at 24 h, 100 µM [2]: 161 µM (≈ 65 µg/mL)
Papp A→B at 10 µM [3]: 0.2 ×10⁻⁶ cm/s
CLhep predicted at 1 µM [4]: 6.3 mL/min/kg
CLhep predicted at 1 µM [5]: 27 mL/min/kg
CLhep predicted at 1 µM [6]: 5 mL/min/kg
Structure (SMILES): N[C@H]1CC[C@H](NS(=O)(=O)c2ccc(NC(=O)NCc3cccnc3)cc2)CC1

solubility at 24 h, 100 µM [2]: 136 µM (≈ 55 µg/mL)
Papp A→B at 10 µM [3]: 0.1 ×10⁻⁶ cm/s
CLhep predicted at 1 µM [4]: 19 mL/min/kg
CLhep predicted at 1 µM [5]: 61 mL/min/kg
CLhep predicted at 1 µM [6]: 4 mL/min/kg
Structure (SMILES): O=C(NCc1cccnc1)Nc1ccc(S(=O)(=O)N[C@H]2CCC[C@H](O)C2)cc1

CLhep predicted at 1 µM [6]: 3 mL/min/kg
Structure (SMILES): O=C(NCc1cccnc1)Nc1ccc(S(=O)(=O)N[C@@H]2CCNC[C@H]2F)cc1

CLhep predicted at 1 µM [6]: 6 mL/min/kg
Structure (SMILES): O=C(NCc1cccnc1)Nc1ccc(S(=O)(=O)N2CCCNCC2)cc1

CLhep predicted at 1 µM [6]: 6 mL/min/kg
Structure (SMILES): O=C(NCc1cccnc1)Nc1ccc(S(=O)(=O)N2CCOCC2)cc1

CLhep predicted at 1 µM [6]: 6 mL/min/kg
Structure (SMILES): CCN1CC[C@@H](NS(=O)(=O)c2ccc(NC(=O)NCc3cccnc3)cc2)[C@@H](F)C1

CLhep predicted at 1 µM [6]: 3 mL/min/kg
Structure (SMILES): O=C(NCc1cccnc1)Nc1ccc(S(=O)(=O)N2C[C@@H]3C[C@H]2CO3)cc1

CLhep predicted at 1 µM [6]: 7 mL/min/kg
Structure (SMILES): O=C(NCc1cccnc1)Nc1ccc(S(=O)(=O)N2CC3(COC3)C2)cc1

CLhep predicted at 1 µM [6]: 18 mL/min/kg
Structure (SMILES): O=C(NCc1cccnc1)Nc1ccc(S(=O)(=O)N2CCNC(C(F)(F)F)CC2)cc1 (racemic)

CLhep predicted at 1 µM [6]: 8 mL/min/kg
Structure (SMILES): O=C(NCc1cccnc1)Nc1ccc(S(=O)(=O)N2CCC23COC3)cc1

CLhep predicted at 1 µM [6]: 17 mL/min/kg
Structure (SMILES): C[C@@H]1COC[C@@H](C)N1S(=O)(=O)c1ccc(NC(=O)NCc2cccnc2)cc1 (racemic)

CLhep predicted at 1 µM [6]: 8 mL/min/kg
Structure (SMILES): O=C(NCc1cccnc1)Nc1ccc(S(=O)(=O)c2ccccc2)cc1

CLhep predicted at 1 µM [6]: 2 mL/min/kg
Structure (SMILES): O=C(NCc1cccnc1)Nc1ccc(S(=O)(=O)N[C@H]2CC[C@H](O)CC2)cc1

Reference: ChEMBL document CHEMBL2390826, “Discovery of potent and efficacious urea-containing nicotinamide phosphoribosyltransferase (NAMPT) inhibitors with reduced CYP2C9 inhibition properties” (Bioorg Med Chem Lett, 2013)
